Laboratory results from PMC9030254, “Target Hopping from Protein Kinases to PXR: Identification of Small-Molecule Protein Kinase Inhibitors as Selective Modulators of Pregnane X Receptor from TüKIC Library” (Cells, 2022).

Experiments:
Assay in all cases: Kinase profiling
Format in all cases: biochemical
PRK2 = molecular target: T1, PRK2 (Homo sapiens, UniProt Q16513)
T1 construct: purchased ProQinase (Freiburg, Germany)
Protocol: (§1) The analysis was performed by ProQinase (Freiburg, Germany).

ABL2 = molecular target: T2, ABL2 (Homo sapiens, UniProt P42684)
T2 construct: purchased ProQinase (Freiburg, Germany)
Protocol: as §1

NIK = molecular target: T3, NIK (Homo sapiens, UniProt Q99558)
T3 construct: purchased ProQinase (Freiburg, Germany)
Protocol: as §1

ACVRL1 = molecular target: T4, ACVRL1 (Homo sapiens, UniProt P37023)
T4 construct: purchased ProQinase (Freiburg, Germany)
T4 sequence (P37023 22-503): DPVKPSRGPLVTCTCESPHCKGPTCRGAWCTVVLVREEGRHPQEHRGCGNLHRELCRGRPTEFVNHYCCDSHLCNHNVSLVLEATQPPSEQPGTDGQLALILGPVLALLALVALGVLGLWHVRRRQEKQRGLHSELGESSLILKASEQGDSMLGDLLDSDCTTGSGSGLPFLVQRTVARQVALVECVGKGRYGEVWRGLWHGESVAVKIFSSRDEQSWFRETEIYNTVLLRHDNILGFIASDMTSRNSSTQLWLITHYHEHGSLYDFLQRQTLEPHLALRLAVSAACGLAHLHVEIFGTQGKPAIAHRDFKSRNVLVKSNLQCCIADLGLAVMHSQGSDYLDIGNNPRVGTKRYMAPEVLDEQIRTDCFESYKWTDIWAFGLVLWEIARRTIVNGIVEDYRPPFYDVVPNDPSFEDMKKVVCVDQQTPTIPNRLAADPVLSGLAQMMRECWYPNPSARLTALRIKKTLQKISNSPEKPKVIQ
Protocol: as §1

ROS = molecular target: T5, ROS (Homo sapiens, UniProt P08922)
T5 construct: purchased ProQinase (Freiburg, Germany)
T5 sequence (P08922 28-2347): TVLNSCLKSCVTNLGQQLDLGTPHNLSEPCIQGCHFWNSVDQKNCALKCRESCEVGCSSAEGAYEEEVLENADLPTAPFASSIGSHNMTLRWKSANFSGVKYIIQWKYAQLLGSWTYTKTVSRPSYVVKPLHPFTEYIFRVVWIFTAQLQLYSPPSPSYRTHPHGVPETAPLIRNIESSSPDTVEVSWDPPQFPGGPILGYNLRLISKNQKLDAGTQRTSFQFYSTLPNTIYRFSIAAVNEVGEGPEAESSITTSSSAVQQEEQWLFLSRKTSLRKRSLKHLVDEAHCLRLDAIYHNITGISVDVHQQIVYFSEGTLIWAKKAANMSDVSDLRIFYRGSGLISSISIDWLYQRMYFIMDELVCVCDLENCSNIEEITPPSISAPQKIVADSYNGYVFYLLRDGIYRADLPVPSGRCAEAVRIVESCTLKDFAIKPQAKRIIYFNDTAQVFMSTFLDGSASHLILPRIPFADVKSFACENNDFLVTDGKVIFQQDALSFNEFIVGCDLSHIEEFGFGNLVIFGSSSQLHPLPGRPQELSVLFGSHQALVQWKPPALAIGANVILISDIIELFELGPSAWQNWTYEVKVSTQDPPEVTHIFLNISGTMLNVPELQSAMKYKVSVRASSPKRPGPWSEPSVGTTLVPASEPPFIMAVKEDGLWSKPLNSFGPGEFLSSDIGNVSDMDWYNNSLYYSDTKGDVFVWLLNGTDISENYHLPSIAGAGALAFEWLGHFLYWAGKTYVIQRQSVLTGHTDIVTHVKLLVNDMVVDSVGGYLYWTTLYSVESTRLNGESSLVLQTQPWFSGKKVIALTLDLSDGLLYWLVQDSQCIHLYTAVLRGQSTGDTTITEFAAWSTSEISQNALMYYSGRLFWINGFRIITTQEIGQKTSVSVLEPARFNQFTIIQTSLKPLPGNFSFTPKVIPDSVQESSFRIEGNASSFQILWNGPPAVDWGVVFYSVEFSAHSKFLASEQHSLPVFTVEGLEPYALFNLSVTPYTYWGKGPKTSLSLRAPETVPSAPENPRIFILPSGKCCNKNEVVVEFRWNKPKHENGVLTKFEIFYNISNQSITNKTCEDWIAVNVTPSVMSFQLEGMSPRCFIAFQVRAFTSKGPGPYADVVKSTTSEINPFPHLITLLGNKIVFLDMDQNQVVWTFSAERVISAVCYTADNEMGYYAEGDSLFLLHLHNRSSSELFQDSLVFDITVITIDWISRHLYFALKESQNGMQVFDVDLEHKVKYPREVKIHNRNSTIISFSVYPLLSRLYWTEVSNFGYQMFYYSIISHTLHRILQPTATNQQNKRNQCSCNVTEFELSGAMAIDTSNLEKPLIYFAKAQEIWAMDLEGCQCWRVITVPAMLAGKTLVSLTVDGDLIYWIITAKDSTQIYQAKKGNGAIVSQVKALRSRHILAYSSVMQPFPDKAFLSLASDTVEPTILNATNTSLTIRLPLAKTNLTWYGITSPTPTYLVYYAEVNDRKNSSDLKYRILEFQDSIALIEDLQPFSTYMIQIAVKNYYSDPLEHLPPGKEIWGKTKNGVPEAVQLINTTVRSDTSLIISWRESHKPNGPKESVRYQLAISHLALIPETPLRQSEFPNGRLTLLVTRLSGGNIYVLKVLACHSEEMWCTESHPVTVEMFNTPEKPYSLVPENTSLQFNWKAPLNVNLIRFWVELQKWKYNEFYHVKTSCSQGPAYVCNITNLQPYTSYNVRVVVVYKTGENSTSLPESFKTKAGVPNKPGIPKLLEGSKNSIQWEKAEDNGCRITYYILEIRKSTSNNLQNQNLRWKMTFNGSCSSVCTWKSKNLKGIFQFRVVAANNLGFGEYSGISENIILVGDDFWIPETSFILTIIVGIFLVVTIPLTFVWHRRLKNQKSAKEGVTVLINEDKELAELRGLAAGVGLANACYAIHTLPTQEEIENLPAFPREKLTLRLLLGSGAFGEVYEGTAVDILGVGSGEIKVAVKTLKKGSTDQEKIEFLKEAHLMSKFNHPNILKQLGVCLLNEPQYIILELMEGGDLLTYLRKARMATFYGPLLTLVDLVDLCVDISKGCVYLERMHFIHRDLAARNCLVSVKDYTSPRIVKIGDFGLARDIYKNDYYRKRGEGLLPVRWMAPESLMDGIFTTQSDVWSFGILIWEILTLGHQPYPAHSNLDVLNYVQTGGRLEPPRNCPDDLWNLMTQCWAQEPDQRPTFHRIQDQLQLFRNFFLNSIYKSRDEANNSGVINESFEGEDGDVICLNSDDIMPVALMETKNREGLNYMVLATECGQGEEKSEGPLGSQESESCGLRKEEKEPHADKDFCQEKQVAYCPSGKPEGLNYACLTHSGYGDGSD
Protocol: as §1

PKCeta = molecular target: T6, PKCeta (Homo sapiens, UniProt P24723)
T6 construct: purchased ProQinase (Freiburg, Germany)
Protocol: as §1

MERTK = molecular target: T7, MERTK (Homo sapiens, UniProt Q12866)
T7 construct: purchased ProQinase (Freiburg, Germany)
T7 sequence (Q12866 21-999): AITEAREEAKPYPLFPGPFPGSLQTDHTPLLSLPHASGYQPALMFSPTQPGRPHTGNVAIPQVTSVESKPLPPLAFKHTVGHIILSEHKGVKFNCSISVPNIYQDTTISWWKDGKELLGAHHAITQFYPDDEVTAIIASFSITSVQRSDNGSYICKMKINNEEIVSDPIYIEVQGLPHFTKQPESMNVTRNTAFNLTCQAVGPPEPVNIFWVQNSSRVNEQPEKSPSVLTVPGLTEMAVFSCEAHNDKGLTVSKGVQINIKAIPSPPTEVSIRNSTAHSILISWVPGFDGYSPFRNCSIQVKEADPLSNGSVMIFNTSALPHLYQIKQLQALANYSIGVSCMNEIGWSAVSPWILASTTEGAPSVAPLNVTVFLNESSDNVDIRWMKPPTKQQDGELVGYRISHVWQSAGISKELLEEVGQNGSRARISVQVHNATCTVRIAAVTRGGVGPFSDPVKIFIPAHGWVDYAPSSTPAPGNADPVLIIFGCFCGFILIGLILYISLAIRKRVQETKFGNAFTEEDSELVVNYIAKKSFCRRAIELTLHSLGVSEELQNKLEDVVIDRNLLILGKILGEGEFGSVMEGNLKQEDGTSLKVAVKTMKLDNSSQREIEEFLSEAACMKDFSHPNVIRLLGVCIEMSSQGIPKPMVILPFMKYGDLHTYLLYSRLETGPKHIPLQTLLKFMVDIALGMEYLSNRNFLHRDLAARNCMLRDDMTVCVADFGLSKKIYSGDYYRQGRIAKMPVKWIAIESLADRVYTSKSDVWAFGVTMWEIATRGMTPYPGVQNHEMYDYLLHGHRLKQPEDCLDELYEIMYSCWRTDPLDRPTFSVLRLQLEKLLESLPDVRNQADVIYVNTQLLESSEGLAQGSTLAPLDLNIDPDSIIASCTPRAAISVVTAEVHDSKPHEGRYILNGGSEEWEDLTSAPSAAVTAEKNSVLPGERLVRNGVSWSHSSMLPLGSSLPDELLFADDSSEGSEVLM
Protocol: as §1

LRRK2 = molecular target: T8, LRRK2 (Homo sapiens, UniProt Q5S007)
T8 construct: purchased ProQinase (Freiburg, Germany)
Protocol: as §1

PAK1 = molecular target: T9, PAK1 (Homo sapiens, UniProt Q13153)
T9 construct: purchased ProQinase (Freiburg, Germany)
Protocol: as §1

PKCepsilon = molecular target: T10, PKCepsilon (Homo sapiens, UniProt Q02156)
T10 construct: purchased ProQinase (Freiburg, Germany)
T10 sequence (Q02156 1-737): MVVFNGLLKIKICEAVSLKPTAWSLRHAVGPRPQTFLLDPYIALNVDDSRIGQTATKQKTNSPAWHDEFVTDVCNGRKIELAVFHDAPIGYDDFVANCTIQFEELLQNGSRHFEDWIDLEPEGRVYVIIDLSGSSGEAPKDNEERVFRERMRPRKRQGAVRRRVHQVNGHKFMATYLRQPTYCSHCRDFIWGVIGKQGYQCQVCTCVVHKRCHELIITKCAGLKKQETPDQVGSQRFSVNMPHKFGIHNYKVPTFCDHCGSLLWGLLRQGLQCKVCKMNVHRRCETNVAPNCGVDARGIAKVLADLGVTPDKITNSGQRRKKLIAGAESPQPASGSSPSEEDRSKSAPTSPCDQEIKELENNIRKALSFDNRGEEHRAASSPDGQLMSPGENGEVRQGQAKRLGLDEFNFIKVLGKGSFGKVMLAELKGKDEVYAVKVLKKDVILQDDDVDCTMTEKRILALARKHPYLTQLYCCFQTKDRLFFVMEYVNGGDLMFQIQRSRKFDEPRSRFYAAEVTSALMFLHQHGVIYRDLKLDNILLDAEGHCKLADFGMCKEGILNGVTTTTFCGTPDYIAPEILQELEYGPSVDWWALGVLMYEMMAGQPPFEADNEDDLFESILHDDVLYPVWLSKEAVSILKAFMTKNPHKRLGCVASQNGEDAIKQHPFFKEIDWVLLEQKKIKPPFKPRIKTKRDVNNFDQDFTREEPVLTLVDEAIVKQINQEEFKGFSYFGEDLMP
Protocol: as §1

DAPK2 = molecular target: T11, DAPK2 (Homo sapiens, UniProt Q9UIK4)
T11 construct: purchased ProQinase (Freiburg, Germany)
T11 sequence (Q9UIK4 whole entry): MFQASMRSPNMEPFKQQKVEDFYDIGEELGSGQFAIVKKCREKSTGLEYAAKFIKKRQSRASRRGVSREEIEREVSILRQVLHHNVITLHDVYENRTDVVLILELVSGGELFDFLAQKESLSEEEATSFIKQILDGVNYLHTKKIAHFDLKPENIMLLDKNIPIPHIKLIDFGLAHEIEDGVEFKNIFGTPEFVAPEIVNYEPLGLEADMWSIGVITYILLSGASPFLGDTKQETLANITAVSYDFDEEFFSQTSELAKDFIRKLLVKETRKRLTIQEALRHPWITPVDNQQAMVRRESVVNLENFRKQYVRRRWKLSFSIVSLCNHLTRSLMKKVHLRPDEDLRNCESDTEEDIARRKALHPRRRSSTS
Protocol: as §1

ROCK2 = molecular target: T12, ROCK2 (Homo sapiens, UniProt O75116)
T12 construct: purchased ProQinase (Freiburg, Germany)
Protocol: as §1

VEGFR2 = molecular target: T13, VEGFR2 (Homo sapiens, UniProt P35968)
T13 construct: purchased ProQinase (Freiburg, Germany)
Protocol: as §1

SIK3 = molecular target: T14, SIK3 (Homo sapiens, UniProt Q9Y2K2)
T14 construct: purchased ProQinase (Freiburg, Germany)
Protocol: as §1

MARK1 = molecular target: T15, MARK1 (Homo sapiens, UniProt Q9P0L2)
T15 construct: purchased ProQinase (Freiburg, Germany)
T15 sequence (Q9P0L2 whole entry): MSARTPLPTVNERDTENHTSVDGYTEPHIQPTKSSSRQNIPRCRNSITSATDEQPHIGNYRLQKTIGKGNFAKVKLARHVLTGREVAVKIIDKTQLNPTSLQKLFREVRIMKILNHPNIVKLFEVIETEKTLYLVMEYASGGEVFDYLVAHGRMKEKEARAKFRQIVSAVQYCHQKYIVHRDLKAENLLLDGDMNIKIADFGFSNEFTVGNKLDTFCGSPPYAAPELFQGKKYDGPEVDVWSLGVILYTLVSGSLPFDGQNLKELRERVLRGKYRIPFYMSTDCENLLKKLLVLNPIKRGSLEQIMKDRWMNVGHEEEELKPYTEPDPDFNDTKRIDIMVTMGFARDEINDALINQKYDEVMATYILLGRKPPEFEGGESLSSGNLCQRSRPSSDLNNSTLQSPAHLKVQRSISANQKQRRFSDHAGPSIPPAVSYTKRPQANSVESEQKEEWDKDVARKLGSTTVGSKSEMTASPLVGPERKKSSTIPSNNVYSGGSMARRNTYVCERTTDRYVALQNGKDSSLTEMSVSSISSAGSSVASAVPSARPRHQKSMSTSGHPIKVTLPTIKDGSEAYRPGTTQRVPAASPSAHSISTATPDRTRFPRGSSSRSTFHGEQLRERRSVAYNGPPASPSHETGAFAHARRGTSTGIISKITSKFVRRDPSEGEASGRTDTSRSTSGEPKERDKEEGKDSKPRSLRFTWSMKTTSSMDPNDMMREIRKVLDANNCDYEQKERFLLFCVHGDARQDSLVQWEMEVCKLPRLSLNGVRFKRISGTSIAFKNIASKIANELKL
Protocol: as §1

BMPR1A = molecular target: T16, BMPR1A (Homo sapiens, UniProt P36894)
T16 construct: purchased ProQinase (Freiburg, Germany)
Protocol: as §1

MYLK2 = molecular target: T17, MYLK2 (Homo sapiens, UniProt Q9H1R3)
T17 construct: purchased ProQinase (Freiburg, Germany)
Protocol: as §1

T1 sequence (Q16513 whole entry): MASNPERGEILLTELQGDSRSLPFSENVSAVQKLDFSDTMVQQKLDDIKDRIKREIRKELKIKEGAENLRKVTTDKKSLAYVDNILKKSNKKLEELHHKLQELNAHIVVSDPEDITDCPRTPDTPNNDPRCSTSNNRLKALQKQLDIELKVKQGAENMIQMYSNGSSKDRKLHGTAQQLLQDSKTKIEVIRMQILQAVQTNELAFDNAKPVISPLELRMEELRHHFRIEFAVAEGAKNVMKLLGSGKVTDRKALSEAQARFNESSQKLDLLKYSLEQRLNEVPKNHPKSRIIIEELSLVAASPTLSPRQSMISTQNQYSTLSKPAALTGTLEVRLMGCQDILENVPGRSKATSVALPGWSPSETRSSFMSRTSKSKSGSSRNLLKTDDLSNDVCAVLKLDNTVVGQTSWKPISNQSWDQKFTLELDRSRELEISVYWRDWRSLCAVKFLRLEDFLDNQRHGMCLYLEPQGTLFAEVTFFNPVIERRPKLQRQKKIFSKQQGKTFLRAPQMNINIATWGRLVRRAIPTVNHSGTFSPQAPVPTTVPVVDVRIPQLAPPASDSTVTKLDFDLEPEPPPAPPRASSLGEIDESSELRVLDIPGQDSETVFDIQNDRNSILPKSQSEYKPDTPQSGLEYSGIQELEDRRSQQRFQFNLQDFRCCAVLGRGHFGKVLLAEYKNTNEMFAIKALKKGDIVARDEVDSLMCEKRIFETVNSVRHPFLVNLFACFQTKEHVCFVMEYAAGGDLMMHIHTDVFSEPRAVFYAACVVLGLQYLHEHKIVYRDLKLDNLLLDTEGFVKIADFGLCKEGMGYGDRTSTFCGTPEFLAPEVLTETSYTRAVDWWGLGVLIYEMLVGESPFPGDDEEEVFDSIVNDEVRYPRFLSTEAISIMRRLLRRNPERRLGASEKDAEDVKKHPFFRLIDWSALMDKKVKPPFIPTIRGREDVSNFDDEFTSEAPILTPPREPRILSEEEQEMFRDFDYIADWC

Row | SMILES | Residual activity (PRK2; 1.0E-05 M) | Residual activity (PRK2; 1.0E-06 M) | Residual activity (ABL2; 1.0E-05 M) | Residual activity (ABL2; 1.0E-06 M) | Residual activity (NIK; 1.0E-05 M) | Residual activity (NIK; 1.0E-06 M) | Residual activity (ACVRL1; 1.0E-05 M) | Residual activity (ACVRL1; 1.0E-06 M) | Residual activity (ROS; 1.0E-05 M) | Residual activity (ROS; 1.0E-06 M) | Residual activity (PKCeta; 1.0E-05 M) | Residual activity (PKCeta; 1.0E-06 M) | Residual activity (MERTK; 1.0E-05 M) | Residual activity (MERTK; 1.0E-06 M) | Residual activity (LRRK2; 1.0E-05 M) | Residual activity (LRRK2; 1.0E-06 M) | Residual activity (PAK1; 1.0E-05 M) | Residual activity (PAK1; 1.0E-06 M) | Residual activity (PKCepsilon; 1.0E-05 M) | Residual activity (PKCepsilon; 1.0E-06 M) | also measured
1 | O=C(Nc1ccc(F)c(Nc2ccc3c(c2)CCCCC3=O)c1)c1cccc(F)c1 [Compound 109] | 96 % of control | 90 % of control | 92 % of control | 95 % of control | 103 % of control | 103 % of control | 109 % of control | 94 % of control | 85 % of control | 97 % of control | 110 % of control | 116 % of control | 85 % of control | 101 % of control | 90 % of control | 94 % of control | 80 % of control | 84 % of control | 103 % of control | 104 % of control | Residual activity (DAPK2; 1.0E-05 M): 133 % of control; Residual activity (DAPK2; 1.0E-06 M): 110 % of control; Residual activity (ROCK2; 1.0E-05 M): 98 % of control; Residual activity (ROCK2; 1.0E-06 M): 103 % of control; Residual activity (VEGFR2; 1.0E-05 M): 79 % of control; Residual activity (VEGFR2; 1.0E-06 M): 84 % of control; Residual activity (SIK3; 1.0E-05 M): 99 % of control; Residual activity (SIK3; 1.0E-06 M): 96 % of control; Residual activity (MARK1; 1.0E-05 M): 99 % of control; Residual activity (MARK1; 1.0E-06 M): 87 % of control; Residual activity (BMPR1A; 1.0E-05 M): 88 % of control; Residual activity (BMPR1A; 1.0E-06 M): 92 % of control; Residual activity (MYLK2; 1.0E-05 M): 79 % of control; Residual activity (MYLK2; 1.0E-06 M): 85 % of control
2 | O=C(Cc1ccccc1)Nc1ccc(F)c(Nc2ccc3c(c2)CCCCC3=O)c1 [Compound 100] | 97 % of control | 94 % of control | 93 % of control | 97 % of control | 103 % of control | 93 % of control | 100 % of control | 106 % of control | 91 % of control | 99 % of control | 115 % of control | 116 % of control | 73 % of control | 103 % of control | 92 % of control | 89 % of control | 88 % of control | 87 % of control | 107 % of control | 107 % of control | Residual activity (DAPK2; 1.0E-05 M): 124 % of control; Residual activity (DAPK2; 1.0E-06 M): 113 % of control; Residual activity (ROCK2; 1.0E-05 M): 102 % of control; Residual activity (ROCK2; 1.0E-06 M): 101 % of control; Residual activity (VEGFR2; 1.0E-05 M): 77 % of control; Residual activity (VEGFR2; 1.0E-06 M): 98 % of control; Residual activity (SIK3; 1.0E-05 M): 87 % of control; Residual activity (SIK3; 1.0E-06 M): 95 % of control; Residual activity (MARK1; 1.0E-05 M): 90 % of control; Residual activity (MARK1; 1.0E-06 M): 91 % of control; Residual activity (BMPR1A; 1.0E-05 M): 82 % of control; Residual activity (BMPR1A; 1.0E-06 M): 101 % of control; Residual activity (MYLK2; 1.0E-05 M): 82 % of control; Residual activity (MYLK2; 1.0E-06 M): 93 % of control
